Assay results taken from patent US11414374B2, “Crystalline forms of vilanterol trifenatate and processes for their preparation” (Hovione Scientia Limited, priority 2017, dated 2022).

Legend:
Format in all cases: physicochemical
[1] = Storage stability of exposed powder at 25° C. and 60% RH for seven days, compared by XRPD; conditions: 25° C. 60% RH, 7 d, resulting form
Experimental: Approximately 30 mg of exposed powder of comparative form 1 and new forms II and III, respectively, were stored at 25′C and 60% RH for seven days. Each powder was then analyzed by XRPD and its diffraction pattern was compared with that of untreated sample.

[2] = Dynamic vapor sorption (DVS) analysis / hygroscopicity (EP 7.0 classification); conditions: for Hygroscopically (DVS): DVS hygroscopicity class; for XRPD after DVS: resulting form after DVS
Experimental: The hygroscopicity value is directly obtained from the sorption row at 80% RH, cycle 1.
Hygroscopicity of a sample of each of new form II and comparative form I was determined using the protocol provided below in conditions of 80% RH and 25° C.
The sample was subjected to DVS measuring using SMS-DVS intrinsic. The kinetic moisture sorption measurement was performed at 25° C. and in a RH % range described in the following: • From 40% RH to 90% RH • Form 90% RH to 0% RH • From 0% RH to 90% RH • From 90% RH to 0% RH
The sample was analyzed by XRPD after the analysis.
The hygroscopicity was calculated using the following equation: % Weight Change=[(W2−W1)/W1]*100 W1: weight of sample at the start of the experiment (25° C. and 40% RH) W2: weight of sample at 25° C. and 80% RH in the first absorption cycle

[3] = Stability test (exposed sample 16 h), form by XRPD; conditions: resulting form
[4] = DSC - differential scanning calorimetry; conditions: for DSC (onset) endo. degradation: endothermic event: degradation; for DSC (onset) endo. solvent loss + melting: endothermic event: solvent loss + melting (Form 6: + Form 2 melting; Form 14: + Form 3 melting); for DSC (onset) endo. solvent loss: endothermic event: solvent loss
Experimental: The analysis was carried out using a DSC Q200 TA instruments equipped with a refrigerator cooling system (RCS40) and autosampler. The sample was weighed in an aluminum hermetic pan with pinhole. The analysis was performed heating the sample from 25° C. to 350° C. at 10° C./min.

[5] = Stability test (60° C. 75% RH-3 d), form by XRPD; conditions: resulting form
[6] = TGA / TGA-EGA thermogravimetric analysis with evolved gas analysis; conditions: for EGA: evolved solvent identified
Experimental: The analysis was carried out using the Mettler Toledo TGA/DSC1. The sample was weighed in an aluminum pan hermetically sealed with an aluminum pierced cover. The analysis was performed heating the sample from 25° C. to 320° C. at 10° C./min. TGA-FTIR coupled with Thermo Nicoled is 10 spectometer. The analysis was carried out using the mettler toledo TGA/DSC1. The sample was weighed in an aluminum pan hermetically sealed with an aluminum pierced cover. The analysis was performed heating the sample from 25° C. to 320° C. at 10° C./min. The evolved gas is compared with ft-ir spectra database for identification.

XRPD after Grinding = conditions: resulting form after grinding
[7] = Stability test (sealed vial 18 h), form by XRPD; conditions: resulting form

OCc1cc([C@@H](O)CNCCCCCCOCCOCc2c(Cl)cccc2Cl)ccc1O [form VIII, vilanterol trifenatate]
Stability test (25° C. 60% RH-7 d) ([1]; listed as Form 8): Strong crystallinity | Hygroscopically (DVS) ([2]; listed as Form 8): Not hygroscopic | XRPD after DVS ([2]; listed as Form 8): Form 8 | Stability test (exposed sample 16 h) ([3]; listed as Form 8): Form 8 | DSC (onset) endo. degradation ([4]; listed as Form 8): endo. 191 °C | DSC (onset) endo. solvent loss + melting ([4]; listed as Form 8): endo. 136 °C solvent | DSC (onset) endo. solvent loss ([4]; listed as Form 8): endo. 66 °C solvent loss | Stability test (60° C. 75% RH-3 d) ([5]; listed as Form 8): Partial conversion | EGA ([6]; listed as Form 8): Anisole | TGA overall weight loss ([6]; overall loss of the named solvent(s), listed as Form 8): of approx.. 68% w/w | XRPD after Grinding (XRPD after Grinding; listed as Form 8): Strong crystallinity | Stability test (sealed vial 18 h) ([7]; listed as Form 8): Form 8

OCc1cc([C@@H](O)CNCCCCCCOCCOCc2c(Cl)cccc2Cl)ccc1O [form IX, vilanterol trifenatate]
Stability test (25° C. 60% RH-7 d) ([1]; listed as Form 9): Form 9 | Hygroscopically (DVS) ([2]; listed as Form 9): Slightly | XRPD after DVS ([2]; listed as Form 9): Low crystallinity | Stability test (exposed sample 16 h) ([3]; listed as Form 9): Form 9 | DSC (onset) endo. degradation ([4]; listed as Form 9): endo. 188 °C | DSC (onset) endo. solvent loss + melting ([4]; listed as Form 9): endo. 100 °C solvent | DSC (onset) endo. solvent loss ([4]; listed as Form 9): endo. 68 °C solvent loss | Stability test (60° C. 75% RH-3 d) ([5]; listed as Form 9): Partial conversion | EGA ([6]; listed as Form 9): Nitromethane | XRPD after Grinding (XRPD after Grinding; listed as Form 9): Amorphous | Stability test (sealed vial 18 h) ([7]; listed as Form 9): Form 9
